Usually pIC50 stands for the negative decadic logarithm of the IC50, by convention in mol/L.

pIC50: −log10 of the molar value.

The assay is described as follows: Induction of LAT1-mediated polyamine efflux in human L3.6PL cells assessed as reduction in cell viability after 48 hrs by MTS assay. (Tetrazolium assays rely on reduction of a dye to a coloured formazan, in cell work by metabolically active cells.)

Turning to `CC(C)CCN1CCN([C@@H](CNCc2ccccc2)CC2CCCCC2)C[C@@H]1CC(C)C`, the pIC50 is 5.46.

(Values after BindingDB's records for doi:10.1021/acs.jmedchem.9b00568 (University of Central Florida, 2020).)
